Article PMC9299109 (Iubmb Life, 2021)

Experiments:
[1] = molecular target: T1, BoFADS (FAD synthase from Brucella ovis) (Brucella ovis, UniProt A0A0H3AW96)
[2] = molecular target: T1, BoFADS (FAD synthase from Brucella ovis); test: biochemical

T1 sequence (A0A0H3AW96 1-329): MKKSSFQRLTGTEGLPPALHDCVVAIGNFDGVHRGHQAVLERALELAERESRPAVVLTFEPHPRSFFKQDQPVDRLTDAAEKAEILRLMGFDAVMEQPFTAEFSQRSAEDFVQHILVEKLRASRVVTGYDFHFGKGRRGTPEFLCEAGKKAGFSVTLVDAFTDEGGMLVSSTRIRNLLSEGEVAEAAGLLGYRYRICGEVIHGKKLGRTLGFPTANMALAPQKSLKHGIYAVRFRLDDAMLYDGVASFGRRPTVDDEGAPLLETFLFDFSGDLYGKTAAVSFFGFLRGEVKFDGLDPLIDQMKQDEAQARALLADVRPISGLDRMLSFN

Row | SMILES | visible difference spectroscopy, FMN titration with ADP [1] | Kd [2] [nM]
1 | Nc1ncnc2c1ncn2[C@@H]1O[C@H](COP(=O)(O)OP(=O)(O)O)[C@@H](O)[C@H]1O [ADP] | titrated with oxidized FMN in the presence of ADP but not in its absence | –
2 | Cc1cc2nc3c(=O)[nH]c(=O)nc-3n(C[C@H](O)[C@H](O)[C@H](O)COP(=O)(O)O)c2cc1C [FMN, flavin mononucleotide] | – | 290 ± 100
3 | Cc1cc2nc3c(=O)[nH]c(=O)nc-3n(C[C@H](O)[C@H](O)[C@H](O)CO)c2cc1C [RF, riboflavin] | – | 410 ± 60
